The values that follow come from ChEMBL document CHEMBL1201862, “PubChem BioAssay data set” (2004).

Molecules are shown by their SMILES.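 96-well plates; 48 h exposure; 5 concentrations. Endpoints by linear interpolation between flanking doses. Not reached: highest tested concentration assigned. Here, GI50 denotes the concentration required for 50% inhibition of growth.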 The source made the active and inactive calls. Rule as the data show it: active = GI50 up to about 1.1 µM and inactive = higher. Bounds are passed on as bounds.

Among the test systems are Hs-578T; MOLT-4; HOP-92; PC-3; UO-31; UACC-257; SK-MEL-2; NCI-H522; NCI-H226; LOX IMVI; OVCAR-4; MDA-MB-231; EKVX; TK-10; COLO 205; MDA-N; HCT-15; KM12; SF-295.
What all share (assay): inhibition of tumour cell growth, NCI panel, 48 h

Take `COc1ccc(NCC(=O)Nn2c(C)nc3ccc(S(=O)(=O)Nc4ccc(OC)cc4)cc3c2=O)cc1`: the GI50 with Hs-578T, in the assay on MOLT-4, with HOP-92, in the assay on PC-3, in the assay on UO-31 and with UACC-257 was > 100 µM (inactive) each time. In addition, the GI50 in the assay with SK-MEL-2, in the assay on NCI-H522, in the assay with NCI-H226, in the assay on LOX IMVI, with OVCAR-4 and in the assay with MDA-MB-231 was > 100 µM (inactive) throughout. Also, the GI50 is > 100 µM (inactive) with EKVX; > 100 µM (inactive) in the assay on TK-10; > 100 µM (inactive) with COLO 205; > 100 µM (inactive) in the assay with MDA-N; more than 100 µM in the assay on HCT-15; > 100 µM (inactive) with KM12. Also, the GI50 with SF-295 is > 100 µM (inactive).

As to `CSC1=C(SC)SC(=C2SC3=C(SC(=C4SCCS4)S3)S2)S1`, the GI50 with Hs-578T, in the assay with MOLT-4, with HOP-92, in the assay with PC-3, in the assay with UO-31 and in the assay on UACC-257 was > 100 µM (inactive) throughout. Moreover, the GI50 in the assay on SK-MEL-2, in the assay with NCI-H522, in the assay with NCI-H226, in the assay with LOX IMVI, with OVCAR-4 and with MDA-MB-231 was > 100 µM (inactive) each time. Besides, the GI50 in the assay on EKVX was > 100 µM (inactive); with TK-10, > 100 µM (inactive); in the assay with COLO 205 it was > 100 µM (inactive); in the assay with MDA-N it was > 100 µM (inactive); with HCT-15, more than 100 µM; in the assay with KM12 it was > 100 µM (inactive). Further, the GI50 in the assay on SF-295 is > 100 µM (inactive).

In the case of `CCC1=CCC23C(=O)C=CC(=O)C2(C1)C(=O)c1cccc(OC)c1C3=O` (stereo not drawn), the GI50 in the assay with Hs-578T is 20.2 µM (inactive); with MOLT-4, 3.87 µM (inactive); in the assay on HOP-92, 15.1 µM (inactive); with PC-3, 14.9 µM (inactive); with UO-31, 10.8 µM (inactive); with UACC-257, 16.3 µM (inactive). Besides, the GI50 was 22.7 µM (inactive) in the assay with SK-MEL-2; 31.8 µM (inactive) in the assay with NCI-H522; 22.1 µM (inactive) in the assay with NCI-H226; 15.1 µM (inactive) in the assay on LOX IMVI; 12.7 µM (inactive) in the assay with OVCAR-4; 15.1 µM (inactive) with MDA-MB-231. Further, the GI50 in the assay on EKVX is 13.2 µM (inactive); in the assay with TK-10, 19.1 µM (inactive); in the assay with COLO 205 it was 14.9 µM (inactive); with MDA-N it was 16.5 µM (inactive); with HCT-15 it was 18 µM; in the assay on KM12 it was 20.9 µM (inactive). The GI50 in the assay with SF-295 was 24.3 µM (inactive).

Turning to `O=c1[nH]nc(Cc2ccc(Cl)cc2)n1/N=C/c1c[nH]c2ccccc12`, the GI50 with Hs-578T, in the assay with MOLT-4, in the assay on HOP-92, in the assay on PC-3, in the assay on UO-31 and with UACC-257 was > 100 µM (inactive) each time. In addition, the GI50 in the assay with SK-MEL-2, in the assay on NCI-H522, with NCI-H226, in the assay on LOX IMVI, with OVCAR-4 and in the assay with MDA-MB-231 was > 100 µM (inactive) each time. The GI50 is > 100 µM (inactive) with EKVX; > 100 µM (inactive) in the assay with TK-10; > 100 µM (inactive) in the assay on MDA-N; more than 100 µM with HCT-15; > 100 µM (inactive) in the assay on KM12; > 100 µM (inactive) in the assay with SF-295.

On to `CC#Cc1cc2c(cc1O)CC[C@@H]1[C@@H]2CC[C@]2(C)[C@@H](O)CC[C@@H]12`, for which the GI50 was 1.11 µM (active) in the assay on Hs-578T; 0.621 µM (active) with MOLT-4; 11.8 µM (inactive) in the assay with HOP-92; 3.92 µM (inactive) in the assay with PC-3; 9.23 µM (inactive) in the assay on UO-31; 1.76 µM (inactive) with UACC-257. Moreover, the GI50 was 1.06 µM (active) in the assay with SK-MEL-2; 0.289 µM (active) in the assay on NCI-H522; 2.8 µM (inactive) in the assay with NCI-H226; 0.94 µM (active) in the assay with LOX IMVI; 12.8 µM (inactive) in the assay on OVCAR-4; 8.18 µM (inactive) in the assay on MDA-MB-231. The GI50 in the assay with EKVX is 2.49 µM (inactive); in the assay with TK-10, 19.9 µM (inactive); in the assay on COLO 205 it was 17.7 µM (inactive); in the assay with MDA-N, 0.178 µM (active); with HCT-15 it was 0.34 µM; in the assay with KM12, 3.08 µM (inactive). The GI50 in the assay on SF-295 is 0.406 µM (active).

With `C/C1=C/C[C@@H](/C(C)=C/c2csc(C)n2)OC(=O)C[C@H](O)C(C)(C)C(=O)[C@H](C)[C@@H](O)[C@@H](C)CCC1` [EPOTHILONE D], the GI50 was < 0.0001 µM (active) with Hs-578T; < 0.0001 µM (active) in the assay with MOLT-4; 0.141 µM (active) in the assay on HOP-92; < 0.0001 µM (active) with PC-3; < 0.0001 µM (active) in the assay on UO-31; < 0.0001 µM (active) in the assay on SK-MEL-2. In addition, the GI50 in the assay with NCI-H522 is < 0.0001 µM (active); in the assay on NCI-H226 it was < 0.0001 µM (active); with LOX IMVI it was < 0.0001 µM (active); with OVCAR-4, 0.137 µM (active); in the assay with MDA-MB-231, < 0.0001 µM (active); in the assay on EKVX, < 0.0001 µM (active). Also, the GI50 with TK-10 was 0.000192 µM (active); with COLO 205, < 0.0001 µM (active); with MDA-N, < 0.0001 µM (active); in the assay with HCT-15, less than 0.0001 µM; with KM12, < 0.0001 µM (active); in the assay on SF-295, < 0.0001 µM (active).

On to `O=C(/C=C1\Nc2ccccc2N\C1=C/C(=O)c1ccc(F)cc1)c1ccc(F)cc1`, for which the GI50 with Hs-578T, in the assay with MOLT-4, in the assay on HOP-92, in the assay on PC-3, in the assay with UO-31 and in the assay with UACC-257 was > 100 µM (inactive) in each case. The GI50 in the assay with SK-MEL-2, in the assay with NCI-H522, with NCI-H226, in the assay with LOX IMVI, in the assay on OVCAR-4 and in the assay with MDA-MB-231 was > 100 µM (inactive) each time. Moreover, the GI50 is > 100 µM (inactive) in the assay on EKVX; > 100 µM (inactive) in the assay with TK-10; > 100 µM (inactive) in the assay on COLO 205; > 100 µM (inactive) in the assay on MDA-N; more than 100 µM in the assay with HCT-15; > 100 µM (inactive) in the assay on KM12.

As for `CN(Cc1cnc2nc(N)nc(N)c2n1)c1ccc(C(=O)NC(CCC(=O)NC(CC(P(=O)(O)O)P(=O)(O)O)C(=O)O)C(=O)O)cc1` (stereo not drawn), the GI50 in the assay on Hs-578T, with MOLT-4, with HOP-92, in the assay with PC-3, with UO-31 and in the assay with UACC-257 was > 100 µM (inactive) each time. Also, the GI50 in the assay on SK-MEL-2, in the assay on NCI-H522, with NCI-H226, in the assay on LOX IMVI, in the assay with OVCAR-4 and in the assay on MDA-MB-231 was > 100 µM (inactive) in each case. The GI50 with EKVX was > 100 µM (inactive); in the assay with TK-10, > 100 µM (inactive); with COLO 205, > 100 µM (inactive); with MDA-N, > 100 µM (inactive); in the assay with HCT-15, more than 100 µM; in the assay with SF-295, > 100 µM (inactive).
